Test results as given in ChEMBL document CHEMBL1201862, “PubChem BioAssay data set” (2004).
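Values below derive from 48-hour exposures of cells grown in 96-well plates, with endpoints linearly interpolated between the two concentrations bracketing the appropriate inhibition level. GI50 marks 50% less growth.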 Calls of active or inactive are those of the source. Rule as the data show it: active = GI50 up to about 1.1 µM and inactive = higher.

Assays:
Assay in all cases: NCI anticancer screen, dose series, 48 h
786-0 = tested on: 786-0
A498 = tested on: A498
A549 = tested on: A549
ACHN = tested on: ACHN
CAKI-1 = tested on: CAKI-1
CCRF-CEM = tested on: CCRF-CEM
COLO 205 = tested on: COLO 205
DU-145 = tested on: DU-145
EKVX = tested on: EKVX
HCC 2998 = tested on: HCC 2998
HCT-116 = tested on: HCT-116
HL-60 = tested on: HL-60
HOP-62 = tested on: HOP-62
HOP-92 = tested on: HOP-92
HT-29 = tested on: HT-29
Hs-578T = tested on: Hs-578T
IGROV-1 = tested on: IGROV-1
K562 = tested on: K562
KM12 = tested on: KM12
LOX IMVI = tested on: LOX IMVI
M14 = tested on: M14
MCF7 = tested on: MCF7
MDA-MB-231 = tested on: MDA-MB-231
MDA-MB-435 = tested on: MDA-MB-435
MDA-N = tested on: MDA-N
MOLT-4 = tested on: MOLT-4
Malme-3M = tested on: Malme-3M
NCI-H226 = tested on: NCI-H226
NCI-H23 = tested on: NCI-H23
NCI-H460 = tested on: NCI-H460
NCI-H522 = tested on: NCI-H522
NCI/ADR-RES = tested on: NCI/ADR-RES
OVCAR-3 = tested on: OVCAR-3
OVCAR-4 = tested on: OVCAR-4
OVCAR-5 = tested on: OVCAR-5
OVCAR-8 = tested on: OVCAR-8
PC-3 = tested on: PC-3
RPMI-8226 = tested on: RPMI-8226
RXF 393 = tested on: RXF 393
SF-268 = tested on: SF-268
SF-295 = tested on: SF-295
SF-539 = tested on: SF-539
SK-MEL-28 = tested on: SK-MEL-28
SK-MEL-5 = tested on: SK-MEL-5
SK-OV-3 = tested on: SK-OV-3
SN12C = tested on: SN12C
SNB-19 = tested on: SNB-19
SNB-75 = tested on: SNB-75
SR = tested on: SR
SW-620 = tested on: SW-620
TK-10 = tested on: TK-10
UACC-257 = tested on: UACC-257
UACC-62 = tested on: UACC-62
UO-31 = tested on: UO-31
HCT-15 = tested on: HCT-15
SK-MEL-2 = tested on: SK-MEL-2
U-251 = tested on: U-251

Compound: [O-][n+]1onc(-c2ccccc2)c1-c1no[n+]([O-])c1-c1c(-c2ccccc2)no[n+]1[O-]
- GI50 (786-0): 8.93 µM (inactive)
- GI50 (A498): 13.9 µM (inactive)
- GI50 (A549): 23.1 µM (inactive)
- GI50 (ACHN): 4.81 µM (inactive)
- GI50 (CAKI-1): 12.8 µM (inactive)
- GI50 (CCRF-CEM): 5.18 µM (inactive)
- GI50 (COLO 205): 6.37 µM (inactive)
- GI50 (DU-145): 9.89 µM (inactive)
- GI50 (EKVX): 37.2 µM (inactive)
- GI50 (HCC 2998): 74.1 µM (inactive)
- GI50 (HCT-116): 3.3 µM (inactive)
- GI50 (HL-60): 2.43 µM (inactive)
- GI50 (HOP-62): 14.9 µM (inactive)
- GI50 (HOP-92): 10.6 µM (inactive)
- GI50 (HT-29): 3.62 µM (inactive)
- GI50 (Hs-578T): 54.1 µM (inactive)
- GI50 (IGROV-1): 8.83 µM (inactive)
- GI50 (K562): 2.51 µM (inactive)
- GI50 (KM12): 7.43 µM (inactive)
- GI50 (LOX IMVI): 2.82 µM (inactive)
- GI50 (M14): 12.1 µM (inactive)
- GI50 (MCF7): 3.23 µM (inactive)
- GI50 (MDA-MB-231): 15.8 µM (inactive)
- GI50 (MDA-MB-435): 2.34 µM (inactive)
- GI50 (MDA-N): 2.58 µM (inactive)
- GI50 (MOLT-4): 3.56 µM (inactive)
- GI50 (Malme-3M): 20.4 µM (inactive)
- GI50 (NCI-H226): 15.2 µM (inactive)
- GI50 (NCI-H23): 3.72 µM (inactive)
- GI50 (NCI-H460): 3.27 µM (inactive)
- GI50 (NCI-H522): 18.8 µM (inactive)
- GI50 (NCI/ADR-RES): 3.98 µM (inactive)
- GI50 (OVCAR-3): 5.71 µM (inactive)
- GI50 (OVCAR-4): 2.94 µM (inactive)
- GI50 (OVCAR-5): 18.6 µM (inactive)
- GI50 (OVCAR-8): 24.1 µM (inactive)
- GI50 (PC-3): 2.47 µM (inactive)
- GI50 (RPMI-8226): 3.03 µM (inactive)
- GI50 (RXF 393): 3.35 µM (inactive)
- GI50 (SF-268): 12.6 µM (inactive)
- GI50 (SF-295): 24.8 µM (inactive)
- GI50 (SF-539): 21 µM (inactive)
- GI50 (SK-MEL-28): 33.7 µM (inactive)
- GI50 (SK-MEL-5): 14.8 µM (inactive)
- GI50 (SK-OV-3): 43.8 µM (inactive)
- GI50 (SN12C): 7.67 µM (inactive)
- GI50 (SNB-19): 27 µM (inactive)
- GI50 (SNB-75): 2.52 µM (inactive)
- GI50 (SR): 2.7 µM (inactive)
- GI50 (SW-620): 4.1 µM (inactive)
- GI50 (TK-10): 44.5 µM (inactive)
- GI50 (UACC-257): 13.1 µM (inactive)
- GI50 (UACC-62): 12.6 µM (inactive)
- GI50 (UO-31): 7.4 µM (inactive)

Compound: CCOC(=O)C(O)(NC(=O)NC(O)(C(=O)OCC)C(F)(F)F)C(F)(F)F (stereo unspecified)
- GI50 (786-0): > 100 µM (inactive)
- GI50 (A498): > 100 µM (inactive)
- GI50 (ACHN): > 100 µM (inactive)
- GI50 (CCRF-CEM): > 100 µM (inactive)
- GI50 (COLO 205): > 100 µM (inactive)
- GI50 (HCC 2998): > 100 µM (inactive)
- GI50 (HCT-116): > 100 µM (inactive)
- GI50 (HCT-15): > 100 µM
- GI50 (HL-60): > 100 µM (inactive)
- GI50 (HT-29): > 100 µM (inactive)
- GI50 (K562): > 100 µM (inactive)
- GI50 (LOX IMVI): > 100 µM (inactive)
- GI50 (MDA-N): > 100 µM (inactive)
- GI50 (MOLT-4): > 100 µM (inactive)
- GI50 (NCI-H23): > 100 µM (inactive)
- GI50 (NCI/ADR-RES): > 100 µM (inactive)
- GI50 (OVCAR-5): > 100 µM (inactive)
- GI50 (PC-3): > 100 µM (inactive)
- GI50 (RPMI-8226): > 100 µM (inactive)
- GI50 (RXF 393): > 100 µM (inactive)
- GI50 (SF-268): > 100 µM (inactive)
- GI50 (SF-539): > 100 µM (inactive)
- GI50 (SK-MEL-28): > 100 µM (inactive)
- GI50 (SK-MEL-2): > 100 µM (inactive)
- GI50 (SK-OV-3): > 100 µM (inactive)
- GI50 (SN12C): > 100 µM (inactive)
- GI50 (SNB-19): > 100 µM (inactive)
- GI50 (SNB-75): > 100 µM (inactive)
- GI50 (SR): > 100 µM (inactive)
- GI50 (U-251): > 100 µM (inactive)
- GI50 (UACC-257): > 100 µM (inactive)
- GI50 (UO-31): > 100 µM (inactive)
